Entries after “also recorded” stand apart in the source; their conditions may differ.

Experimental findings from patent US11447533B2, “Antimicrobial and anticancer peptides and conjugates and compositions, methods, articles and kits relating thereto” (George Mason Research Foundation, Inc., priority 2018, dated 2022) are described below.

Experiment [1] can be described thus: Endotoxin binding: competitive displacement of BODIPY TR-Cadaverine from LPS. Also on record: species or system Escherichia coli. The note with it: 5 μM peptide; for LPS binding (BC displacement), in words: 10 μM BC, 10 μg/mL LPS, low ionic-strength 10 mM Na-PO4; for increase in affinity for LPS compared to the peptide lacking the hydrophobic tail: vs ATRA1 / ATRA1-R3W2. Here is the method:
(§1) FIGS. 2A-2B are graphs showing endotoxin binding. The figures depict the competitive displacement of BC from LPS/LTA by the peptides. 5 μM of each peptide was incubated with 10 μM BC and 10 μg/mL LPS from E. coli (0111:B4) or LTA from S. aureus. Fluorescence intensity was measured at excitation=580 nm and emission=620 nm. 10 μM BC without endotoxin was used as 100% displacement while 10 μM BC with 10 μg/mL LPS/LTA without any peptide as 0% displacement and the % displacement of BC by each peptide was calculated accordingly. […] had been used as a positive control. The horizontal dotted line coincides with the % displacement of BC by ATRA1 on the y-axis.
(§2) FIGS. 6A-6B are graphs showing endotoxin (LPS (FIG. 6A) and LTA (FIG. 6B)) binding. Competitive displacement of BC from LPS/LTA. In each case, 5 μM peptide was incubated with 10 μM BC and 10 μg/mL LPS from E. coli (0111:B4) or LTA from S. aureus. Fluorescence intensity was measured using excitation=580 nm and emission=620 nm. As a positive control 10 μM BC without endotoxin was used as a reference for 100% displacement while 10 μM BC with 10 μg/mL LPS/LTA without any peptide as a negative control and a reference for 0% displacement. These controls were used to calculate % BC displacement for each peptide.
(§3) Endotoxin Binding. The binding of endotoxin (LPS/LTA) was evaluated using a fluorogenic conjugateBODIPY TR-Cadaverine (BC). BC binds endotoxin loses its fluorescence. The peptide competitively displaces BC from endotoxin and the fluorescence is reestablished. Competitive inhibition of endotoxin-BC binding was utilized due to presence of peptides already in complexion with endotoxin. 25 μL of 20 μM of peptides in 10 mM Na—PO4 buffer were incubated with 25 μL of LPS (40 μg/mL) or LTA (40 μg/mL) for 15 min and then added with 50 μL of BC (20 uM). Peptides bind to LPS or LTA and competitively prevents BC bind to the endotoxin. BC loses its fluorescence on binding to endotoxin. The fluorescence intensity of the unbound BC was measured at excitation=580 nm and emission=620 nm.
(§4) BC contains two functional moieties: BODIPY (boron-dipyrromethene) and cadaverine connected via a carboxamide. BODIPY is the fluorophore of BC and fluoresces in the free state in solution but loses fluorescence when bound to LPS/LTA. The competitive displacement of BC from LPS/LTA by AMPs and thus regeneration of the fluorescence has frequently been used to estimate the binding strength of AMPs with LPS/LTA. In the present studies, 5 μM of each peptide was used to displace BC from LPS/LTA. […] Such observation contradicts the initial assumption that substitution of Lys with arginine would result in increased efficiency of LPS binding. However, with sequential substitutions of Lys with arginine, starting with ATRA1-AR, peptide variants show increased LPS binding with each additional arginine substitution. In terms of LPS binding: ATRA1-AR<ATRA1-AR2<ATRA1-AR3. In ATRA1-R3, the lysine residues at 9th, 5th and 1st positions of ATRA1 were substituted with arginine. In ATRA1-R6 all of the lysine residues were replaced with arginine.

Experiment [2] in a line: Endotoxin binding: competitive displacement of BODIPY TR-Cadaverine from LTA. Also on record: species or system Staphylococcus aureus. The note with it: 5 μM peptide; for LTA binding (BC displacement), in words: 10 μM BC, 10 μg/mL LTA, 10 mM Na-PO4; for higher degree of LTA binding than parent peptide: vs ATRA-1 / ATRA1-R3W2. Here is the method:
as §1, §2, §3, §4

In experiment [3] the test system is E. coli ML35p outer membrane. The experiment can be described thus: Outer membrane disruption (β-lactamase leakage, nitrocefin). It is filed as cell-based, Escherichia coli. The note with it: for outer membrane disruption (β-lactamase activity) relative to HCMAB / time to reach maximum signal for nitrocefin hydrolysis: DPBS. Here is the method: Interactions with Bacterial Membranes. Interaction of the peptides with bacterial membranes in different phosphate buffers were evaluated using E. coli ML35p, constructed in our laboratory. At first, competent cells of E. coli ML35 were produced by conventional competent cell preparation method, then transformed with pBR322 plasmid. Transformed colonies were selected after growing on Luria-agar containing 50 μg/mL ampicillin. A single transformed colony was grown in presence of ampicillin first in Luria broth and then in MHBII and stored as 20% glycerol stock at −80° C. This frozen stock, on the day of the experiment, was thawed and grown in MHBII containing ampicillin up to OD600 nm=0.8-0.9, washed with PBS and then suspended in the respective buffer up to the required OD600 nm for use.
Membrane Disruptions. The outer and the inner membrane disruptions by the peptides were evaluated by incubating bacterial suspension with peptides and then measuring the activity of enzymes leaked out of the cells. 100 μL of 10× concentration of peptide in water was incubated with 900 μL bacterial suspension (OD600 nm˜0.1) in respective buffer for 3 hours at room temperature with gentle rotation. Then the cells and debris were separated by centrifugation (10000 r.p.m. for 30 mins) and the supernatant was collected and tested for activity of enzymes that had leaked out of the bacterial cells. HCMAB was used as a positive control to cause 100% membrane disruption and water as a negative causing 0% disruption.
The outer membrane disruption was tested by using the activity of beta-lactamase present in the periplasmic space of E. coli ML35p. Peptides when disrupt the outer membrane enough to cause beta-lactamase to come out, the degree of disruption can be measured by the virtue of the kinetics of the enzyme and using a chromogenic cephalosporin substrate called nitrocefin. β-lactamase mediated hydrolyzed product of nitrocefin has an absorbance αmax=486 nm. Supernatant collected from the incubation of peptide with bacteria was added with nitrocefin solution in DPBS and incubated at 35° C. and continuous absorbance readings. The slope of the linear section of the absorbance curve (absorbance vs time), was used as a measure of membrane disruption and the % Disruption was calculated as: Equation 7: […]
Some of the ATRA1-variants were further tested for their ability to disrupt outer and inner membranes to form pores or disruptions sufficiently large so as to allow enzymes to leak out of their cellular compartments (cytoplasm or periplasmic space). For this purpose, two reporter molecules were used with one being the substrate of a cytoplasmic enzyme and the other was a substrate for an enzyme residing in the periplasmic space. One of the reporters, nitrocefin was the substrate for β-lactamase, which is present in the bacterial periplasm, whereas the other molecule, ONPG, was the substrate for β-galactosidase, which resides in the cytoplasm of E. coli ML35p strain. […] Similarly, β-galactosidase activity in the supernatants is evidence of inner membrane disruption and possible pore formation. When the aforesaid supernatants were tested for nitrocefin and ONPG hydrolysis, the corresponding absorbance increased with time (data not shown) indicating β-lactamase and β-galactosidase activity, respectively, and thus disruption of both the inner and outer membranes. The slopes of the increase in absorbance as a function of time provides the rate of enzyme activity. The enzyme activities in supernatants collected after incubation of bacteria with the quaternary ammonium surfactant, hexadecyltrimethylammonium bromide (HCMAB) was used as an internal reference for 100% membrane disruption. Enzyme activity for supernatants collected for cells incubated in the absence of peptide provided a reference for 0% membrane disruption. Bee venom peptide melittin was used as a positive control. […]

Regarding KRAKKFFKKLK (SEQ ID NO: 4) [ATRA1-A], the “LPS binding (BC displacement), in words” value in experiment [1] was “decreased LPS binding relative to ATRA1”. Moreover, the “LTA binding (BC displacement), in words” value in experiment [2] is “significantly lower LTA binding than ATRA1”.
Take KRAKKFFKRLK (SEQ ID NO: 6) [ATRA1-AR]: the “LPS binding (BC displacement), in words” value in experiment [1] is reported as “lowest LPS binding of all of the peptides tested”.
Turning to “KRFKKFFKKLK (SEQ ID NO: 2) [ATRA1, first 11 residues of NA-CATH]”, the “outer membrane disruption relative to HCMAB” value in experiment [3] (10 mM phosphate buffer, HCMAB = 100%) is reported as “higher degree of disruption than ATRA1-R3W2”.
Turning to “KRFKKFFKKLKGGVIGVTFPF (SEQ ID NO: 38) [ATRA1-HYD, ATRA1 with hydrophobic tail of NA-CATH joined at the C-terminus by a short -GG- segment]”, the “increase in affinity for LPS compared to the peptide lacking the hydrophobic tail” value in experiment [1] is given as ~2 fold. Also, the “higher degree of LTA binding than parent peptide” value in experiment [2] is listed as ~2 fold.
For “KRFKKFFKKLKNSVKKRAKKFFKKPK (SEQ ID NO: 53) [NA-CATH26, first 26 residues of NA-CATH]”, the “decrease in affinity for LPS relative to NA-CATH” value in experiment [1] (deletion of hydrophobic tail) is recorded as ~30%. In experiment [2], the “LTA binding (BC displacement), in words” value is “bound LTA to a significantly lower degree than NA-CATH”. Also, the “outer membrane disruption (β-lactamase activity) relative to HCMAB” value in experiment [3] (HCMAB = 100%) is “significantly lower degrees of β-lactamase leakage”.
With KRWKKWWKKWK (SEQ ID NO: 14) [ATRA1-W4], the “LPS binding (BC displacement), in words” value in experiment [1] is “higher efficacy to bind LPS than the parent ATRA1”. Further, the “time to reach maximum signal for nitrocefin hydrolysis” value (shortened to “time to reach maximum signal”) in experiment [3] is given as “approximately 30 mins”.
On to RRFKRFFKRLK (SEQ ID NO: 9) [ATRA1-R3], for which the “LPS binding (BC displacement), in words” value in experiment [1] is on record as “higher LPS binding than ATRA1”. For the same sequence, the “outer membrane disruption (β-lactamase activity) relative to HCMAB” value in experiment [3] (HCMAB = 100%) was “in between those observed for ATRA1 and ATRA1-F”.
In the case of RRFRRFFRRLR (SEQ ID NO: 10) [ATRA1-R6], the “LPS binding (BC displacement), in words” value in experiment [1] is “bound LPS more effectively than ATRA1-R3”. Besides, the “time to reach maximum signal” value in experiment [3] is “approximately 30 mins”.
Turning to “RRWKRFFKRWK (SEQ ID NO: 15) [ATRA1-R3W2]”, in experiment [1], the “LPS binding (BC displacement), in words” value was “more effective in LPS binding than either of ATRA1-R3 and ATRA1-W2; also recorded: binds LPS marginally greater than ATRA1”. In addition, the “LTA binding (BC displacement), in words” value in experiment [2] is reported as “far effective than ATRA1 in binding LTA”. The “time to reach maximum signal” value in experiment [3] is on record as “approximately 30 mins”. Further, the “outer membrane disruption (β-lactamase activity) relative to HCMAB” value in experiment [3] (HCMAB = 100%) is listed as “Higher outer membrane disruption”; in experiment [3] (HCMAB = 100%, listed as ATRA-R3W2), “approximately 4%”.
“RRWKRFFKRWKGGVIGVTFPF (SEQ ID NO: 50) [ATRA1-R3W2-HYD, ATRA1-R3W2 with hydrophobic tail of NA-CATH joined by -GG-]”: in experiment [1], the “LPS binding (BC displacement), in words” value is on record as “binds LPS with similar affinity as ATRA1-HYD” and the “increase in affinity for LPS compared to the peptide lacking the hydrophobic tail” value is recorded as ~2 fold. The “higher degree of LTA binding than parent peptide” value in experiment [2] is given as ~2 fold. Also, the “outer membrane disruption (β-lactamase activity) relative to HCMAB” value in experiment [3] (HCMAB = 100%) is given as 160%.
